Experimental data: patent US20240343733A1, “COMPOUNDS FOR TARGETING DEGRADATION OF IRAK4 PROTEINS” (BIOGEN MA INC., priority 2021, published 2024)

target: T1, IRAK4 (Homo sapiens, UniProt Q9NWZ3); test: IRAK4 Degradation Assay, HiBiT Method; format: cell-based; settings: 293T cells expressing HiBiT-tagged IRAK4, 6 hours
T1 construct: 293Tcells expressing HiBiT-tagged IRAK4 were then added into 384-well plates
T1 sequence (Q9NWZ3 1-460): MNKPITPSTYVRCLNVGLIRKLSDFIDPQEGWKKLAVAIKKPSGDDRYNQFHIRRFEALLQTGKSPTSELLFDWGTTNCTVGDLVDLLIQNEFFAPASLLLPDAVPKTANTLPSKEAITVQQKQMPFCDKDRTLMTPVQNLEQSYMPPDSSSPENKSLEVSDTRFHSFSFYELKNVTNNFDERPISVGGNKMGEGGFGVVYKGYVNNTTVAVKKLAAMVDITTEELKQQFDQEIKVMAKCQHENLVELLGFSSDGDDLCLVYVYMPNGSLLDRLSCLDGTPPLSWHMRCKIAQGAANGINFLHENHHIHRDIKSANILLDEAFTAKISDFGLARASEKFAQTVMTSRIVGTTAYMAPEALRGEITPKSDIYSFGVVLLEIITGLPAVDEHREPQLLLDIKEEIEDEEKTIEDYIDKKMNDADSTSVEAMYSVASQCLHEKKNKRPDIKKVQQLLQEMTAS
Description: Assay 1. IRAK4 Degradation Assay, HiBiT Method
Selected compounds were tested in an IRAK4 degradation assay using the HiBiT Method.
Phenol red-free Dulbecco's modified Eagle medium (DMEM) and fetal bovine serum (FBS) were purchased from Gibco (Grand Island, NY, USA). The Nano-Glo® HiBiT Lytic Assay System was purchased from Promega (Madison, WI, USA). Cell culture flasks and 384-well microplates were acquired from VWR (Radnor, PA, USA). The 293Tcell line was engineered by knocking-in a HiBiT fusion tag into the C-terminal of the IRAK4 gene in 293T cells (Synthego, Redwood City, CA, USA).
IRAK4 degradation was measured via the quantification of luminescent signals using the Nano-Glo® HiBiT Lytic Assay kit. Test compounds were added to 384-well plates in duplicate using an 11-point half-log dilution series, with the highest dose set at […]. 293Tcells expressing HiBiT-tagged IRAK4 were then added into 384-well plates at a cell density of 10,000 cells per well. The plates were kept at 37° C. with 5% CO2 for 6 hours. Cells that were treated only with DMSO served as the negative control; wells that contained only assay media served as the background control. After the 6-hour incubation, Nano-Glo® HiBiT Lytic Assay reagents were added to the cells. Luminescence was acquired using an EnVision™ Multilabel Reader (PerkinElmer, Santa Clara, CA, USA).

DC50 [nM]	Compound
10 to 100	CC(C)Oc1cc2nc(C3CCN(C(=O)CC4CC5(C4)CN(c4ccc(C6CCC(=O)NC6=O)cc4)C5)CC3)cn2cc1C(=O)Nc1cccc(C(F)F)n1 (stereo not shown) [Example 90, N-[6-(difluoromethyl)-2-pyridyl]-2-[1-[2-[2-[4-(2,6-dioxo-3-piperidyl)phenyl]-2-azaspiro[3.3]heptan-6-yl]acetyl]-4-piperidyl]-7-isopropoxy-imidazo[1,2-a]pyridine-6-carboxamide]
10 to 100	CC(C)Oc1cc2nc([C@H]3CC[C@H](CN(C)C4CCN(c5ccc6c(c5)n(C)c(=O)n6C5CCC(=O)NC5=O)CC4)CC3)cn2cc1C(=O)Nc1cccc(C(F)F)n1 (stereo partly shown) [Example 27, N-[6-(difluoromethyl)-2-pyridyl]-2-[4-[[[1-[1-(2,6-dioxo-3-piperidyl)-3-methyl-2-oxo-benzimidazol-5-yl]-4-piperidyl]-methyl-amino]methyl]cyclohexyl]-7-isopropoxy-imidazo[1,2-a]pyridine-6-carboxamide]
< 10	CC(C)Oc1cc2nc(C3CCN(C(=O)NC4CCN(c5ncc(C6CCC(=O)NC6=O)cc5F)CC4)CC3)cn2cc1C(=O)Nc1cnn2cccnc12 (stereo not shown) [Example 158, 2-(1-((1-(5-(2,6-dioxopiperidin-3-yl)-3-fluoropyridin-2-yl)piperidin-4-yl)carbamoyl)piperidin-4-yl)-7-isopropoxy-N-(pyrazolo[1,5-a]pyrimidin-3-yl)imidazo[1,2-a]pyridine-6-carboxamide]
100 to 500	CC(C)Oc1cc2nc([C@H]3CC[C@H](CN4CCC(c5ccc(C6CCC(=O)NC6=O)cc5)C(F)(F)C4)CC3)cn2cc1C(=O)Nc1cccc(C(F)F)n1 (stereo partly shown) [Example 25, N-[6-(difluoromethyl)-2-pyridyl]-2-[4-[[4-[4-(2,6-dioxo-3-piperidyl)phenyl]-3,3-difluoro-1-piperidyl]methyl]cyclohexyl]-7-isopropoxy-imidazo[1,2-a]pyridine-6-carboxamide]
10 to 100	CC(C)Oc1cc2nc(C3CCN(CC(=O)N4CCC(c5ccc(NC6CCC(=O)NC6=O)cc5)CC4)CC3)cn2cc1C(=O)Nc1cccc(C(F)(F)F)n1 (stereo not shown) [Example 103, 2-(1-(2-(4-(4-((2,6-dioxopiperidin-3-yl)amino)phenyl)piperidin-1-yl)-2-oxoethyl)piperidin-4-yl)-7-isopropoxy-N-(6-(trifluoromethyl)pyridin-2-yl)imidazo[1,2-a]pyridine-6-carboxamide]
< 10	CC(C)Oc1cc2nn([C@H]3CC[C@H](CN4CCN(c5ccc6c(N7CCC(=O)NC7=O)cnn6c5)CC4)CC3)cc2cc1C(=O)Nc1cccn([C@H]2C[C@H]2F)c1=O [Example 145, 2-((1r,4S)-4-((4-(3-(2,4-dioxotetrahydropyrimidin-1(2H)-yl)pyrazolo[1,5-a]pyridin-6-yl)piperazin-1-yl)methyl)cyclohexyl)-N-(1-((1S,2R)-2-fluorocyclopropyl)-2-oxo-1,2-dihydropyridin-3-yl)-6-isopropoxy-2H-indazole-5-carboxamide]
100 to 500	CC(C)Oc1cc2nc(C3(C)CCN(CC(=O)N4CCC(c5ccc(NC6CCC(=O)NC6=O)cc5)CC4)CC3)cn2cc1C(=O)Nc1cccc(C(F)(F)F)n1 (stereo not shown) [Example 95, 2-[1-[2-[4-[4-[(2,6-dioxo-3-piperidyl)amino]phenyl]-1-piperidyl]-2-oxo-ethyl]-4-methyl-4-piperidyl]-7-isopropoxy-N-[6-(trifluoromethyl)-2-pyridyl]imidazo[1,2-a]pyridine-6-carboxamide]
< 10	CC(C)Oc1cc2nn([C@H]3CC[C@H](CN4CC5(CCN(c6ncc(C7CCC(=O)NC7=O)cc6F)CC5)C4)CC3)cc2cc1C(=O)Nc1cnn2cccnc12 (stereo partly shown) [Example 117, 2-((1r,4r)-4-((7-(5-(2,6-dioxopiperidin-3-yl)-3-fluoropyridin-2-yl)-2,7-diazaspiro[3.5]nonan-2-yl)methyl)cyclohexyl)-6-isopropoxy-N-(pyrazolo[1,5-a]pyrimidin-3-yl)-2H-indazole-5-carboxamide]
100 to 500	CC(C)Oc1cc2nn(C3CCN(C(=O)CN4CCC(c5ccc(NC6CCC(=O)NC6=O)cc5)CC4)CC3)cc2cc1C(=O)Nc1cccc(C(F)(F)F)n1 (stereo not shown) [Example 60, 2-(1-(2-(4-(4-((2,6-dioxopiperidin-3-yl)amino)phenyl)piperidin-1-yl)acetyl)piperidin-4-yl)-6-isopropoxy-N-(6-(trifluoromethyl)pyridin-2-yl)-2H-indazole-5-carboxamide]
< 10	CC(C)Oc1cc2nc(C3CCN(C(=O)CN4CCN(c5ccc(C6CCC(=O)NC6=O)cn5)CC4)CC3)cn2cc1C(=O)Nc1cccn([C@H]2C[C@H]2F)c1=O (stereo partly drawn) [Example 163, 2-(1-(2-(4-(5-(2,6-dioxopiperidin-3-yl)pyridin-2-yl)piperazin-1-yl)acetyl)piperidin-4-yl)-N-(1-((1S,2R)-2-fluorocyclopropyl)-2-oxo-1,2-dihydropyridin-3-yl)-7-isopropoxyimidazo[1,2-a]pyridine-6-carboxamide]
< 10	CC(C)Oc1cc2nc([C@H]3CC[C@H](CN4CC5(CCN(c6ncc(N7CCC(=O)NC7=O)cc6F)CC5)C4)CC3)cn2cc1C(=O)Nc1cnn2cccnc12 [Example 181, 2-((1r,4r)-4-((7-(5-(2,4-dioxotetrahydropyrimidin-1(2H)-yl)-3-fluoropyridin-2-yl)-2,7-diazaspiro[3.5]nonan-2-yl)methyl)cyclohexyl)-7-isopropoxy-N-(pyrazolo[1,5-a]pyrimidin-3-yl)imidazo[1,2-a]pyridine-6-carboxamide]
500 to 1000	CC(C)Oc1cc2nc([C@H]3CC[C@H](CN(C)C4CCN(c5cccc(NC6CCC(=O)NC6=O)c5)CC4)CC3)cn2cc1C(=O)Nc1cccc(C(F)(F)F)n1 (stereo partly shown) [Example 9, 2-[4-[[[1-[3-[(2,6-dioxo-3-piperidyl)amino]phenyl]-4-piperidyl]-methyl-amino]methyl]cyclohexyl]-7-isopropoxy-N-[6-(trifluoromethyl)-2-pyridyl]imidazo[1,2-a]pyridine-6-carboxamide]
10 to 100	CC(C)Oc1cc2nc(C3CCN(C(=O)CN4CCC(c5cc(F)c(C6CCC(=O)NC6=O)cc5F)CC4)CC3)cn2cc1C(=O)Nc1cccc(C(F)F)n1 (stereo not shown) [Example 76, N-[6-(difluoromethyl)-2-pyridyl]-2-[1-[2-[4-[4-(2,6-dioxo-3-piperidyl)-2,5-difluoro-phenyl]-1-piperidyl]acetyl]-4-piperidyl]-7-isopropoxy-imidazo[1,2-a]pyridine-6-carboxamide]
100 to 500	CC(C)Oc1cc2nc([C@H]3CC[C@H](CN4CCC(c5ccc(C6CCC(=O)NC6=O)cc5F)CC4)CC3)cn2cc1C(=O)Nc1cccc(C(F)(F)F)n1 (stereo partly shown) [Example 6, 2-[4-[[4-[4-(2,6-dioxo-3-piperidyl)-2-fluoro-phenyl]-1-piperidyl]methyl]cyclohexyl]-7-isopropoxy-N-[6-(trifluoromethyl)-2-pyridyl]imidazo[1,2-a]pyridine-6-carboxamide]
< 10	CC(C)Oc1cc2nn([C@H]3CC[C@H](CN4CCCCC4Cc4ccc(OC5CCC(=O)NC5=O)cc4)CC3)cc2cc1C(=O)Nc1cccn([C@H]2C[C@H]2F)c1=O (stereo partly drawn) [Example 139, 2-((1r,4S)-4-((2-(4-((2,6-dioxopiperidin-3-yl)oxy)benzyl)piperidin-1-yl)methyl)cyclohexyl)-N-(1-((1S,2R)-2-fluorocyclopropyl)-2-oxo-1,2-dihydropyridin-3-yl)-6-isopropoxy-2H-indazole-5-carboxamide]
< 10	CC(C)Oc1cc2nc([C@H]3CC[C@H](CNCC4(O)CCN(c5ncc(C6CCC(=O)NC6=O)cc5F)CC4)CC3)cn2cc1C(=O)Nc1cnn2cccnc12 (stereo partly shown) [Example 176]
